Laboratory results taken from patent US6818643B1, “Neurotrophic bicyclic diamides” (Bristol-Myers Squibb Company, priority 1999, dated 2004).
Like-named read-outs stand apart in the source and are kept apart here.

Target: FKBP12 (Homo sapiens, UniProt P62942)
Experiment: Fluorescence Polarization (FP) Assay of FKBP12 Binding
Settings: for Ki: rotamase Ki derived from FP assay; for inhibition at 1 µM: read-out: % FP inhibition at 1 μM
Experimental: Fluorescence Polarization (FP) Assay of FKBP12 Binding
The buffer (25 mM HEPES, 100 mM sodium chloride, pH 7.5) with pre-mixed enzyme and fluorescent ligand is distributed into wells (190 μL/well). Inhibitors are added as 10 μL of a 10% dimethylsulfoxide solution in the same buffer. FP is measured with an excitation wavelength of 485 nm and emission wavelength of 520 nm.

[1] = Table 1, 1 μM compound, 100 nM fluorescent ligand, 200 nM FKBP12
[2] = Table 2, 1 μM compound, 100 nM fluorescent ligand, 200 nM FKBP12

Sequence of FKBP12 (P62942 whole entry, species assumed): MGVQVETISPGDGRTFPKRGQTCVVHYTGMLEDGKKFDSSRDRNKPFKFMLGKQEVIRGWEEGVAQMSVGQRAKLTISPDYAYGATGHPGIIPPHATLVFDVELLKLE

Structure (SMILES)	inhibition at 1 µM [1]	Ki (Table 1)	other results
COc1ccc(CCC(CCc2ccccc2)CN2C[C@H]3CC[C@@H](C2=O)N3C(=O)C(=O)c2cc(OC)c(OC)c(OC)c2)cc1OC (stereo partly drawn) [Example 14, (1S,5R)-8-(3,4,5-Trimethoxyphenyl)oxalyl-3,8-diaza-3-[4-(3,4-dimethoxyphenyl)-2-(2-phenylethyl)butyl]-bicyclo[3.2.1]octan-2-one]	–	–	Ki (Table 2): 169 nM
COc1cc(CCCN2CC3CCCC(C2=O)N3C(=O)C(=O)c2cc(OC)c(OC)c(OC)c2)cc(OC)c1OC (stereo not shown) [Example 15, 9-(3,4,5-Trimethoxyphenyl)oxalyl-3,9-diaza-3-[3-(3,4,5-trimethoxyphenyl)propyl]bicyclo[3.3.1]nonan-2-one]	44%	100 nM	–
COc1ccc(CCCN2CC3CCCC(C2=O)N3C(=O)C(=O)c2cc(OC)c(OC)c(OC)c2)cc1OC (stereo not shown) [Example 16, 9-(3,4,5-Trimethoxyphenyl)oxalyl-3,9-diaza-3-[3-(3,4-dimethoxyphenyl)propyl]bicyclo[3.3.1]nonan-2-one]	76%	150 nM	–
COc1ccc(CCCCN2CC3CCCC(C2=O)N3C(=O)C(=O)c2cc(OC)c(OC)c(OC)c2)cc1OC (stereo not shown) [Example 17, 9-(3,4,5-Trimethoxyphenyl)oxalyl-3,9-diaza-3-[4-(3,4-dimethoxyphenyl)butyl]bicyclo[3.3.1]-nonan-2-one]	79%	140 nM	–
COc1cc(C(=O)C(=O)N2C3CCCC2C(=O)N(CCCc2ccccc2)C3)cc(OC)c1OC (stereo not shown) [Example 18, 9-(3,4,5-Trimethoxyphenyl)oxalyl-3,9-diaza-3-(3-phenylpropyl)bicyclo[3.3.1]nonan-2-one]	–	60 nM	–
COc1cc(C(=O)C(=O)N2C3CCCC2C(=O)N(CCCCc2ccccc2)C3)cc(OC)c1OC (stereo not shown) [Example 19, 9-(3,4,5-Trimethoxyphenyl)oxalyl-3,9-diaza-3-(4-phenylbutyl)bicyclo[3.3.1]nonan-2-one]	–	85 nM	–
COc1cc(C(=O)C(=O)N2C3CCCC2C(=O)N(CCCCCc2ccccc2)C3)cc(OC)c1OC (stereo not shown) [Example 20, 9-(3,4,5-Trimethoxyphenyl)oxalyl-3,9-diaza-3-(5-phenylpentyl)bicyclo[3.3.1]nonan-2-one]	–	152 nM	–
COc1ccc(CCCC(CCCc2ccccc2)N2CC3CCCC(C2=O)N3C(=O)C(=O)c2cc(OC)c(OC)c(OC)c2)cc1OC (stereo not shown) [Example 21, 9-(3,4,5-Trimethoxyphenyl)oxalyl-3,9-diaza-3-[4-(3,4-dimethoxyphenyl)-1-(3-phenylpropyl)butyl]bicyclo[3.3.1]nonan-2-one]	–	–	inhibition at 1 µM [2]: 1%
COc1cc(C(=O)C(=O)N2C3CCCC2C(=O)N(CC(CCCc2ccccc2)CCCc2ccccc2)C3)cc(OC)c1OC (stereo not shown) [Example 22, 9-(3,4,5-Trimethoxyphenyl)oxalyl-3,9-diaza-3-[5-phenyl-2-(3-phenylpropyl)pentyl]bicyclo[3.3.1]nonan-2-one]	–	–	inhibition at 1 µM [2]: 17%
COc1cc(CCCC(CCCc2ccccc2)CN2CC3CCCC(C2=O)N3C(=O)C(=O)c2cc(OC)c(OC)c(OC)c2)cc(OC)c1OC (stereo not shown) [Example 23, 9-(3,4,5-Trimethoxyphenyl)oxalyl-3,9-diaza-3-[2-(3-phenylpropyl)-5-(3,4,5-trimethoxyphenyl)pentyl]bicyclo[3.3.1]-nonan-2-one]	–	–	inhibition at 1 µM [2]: 81%; Ki (Table 2): 44 nM
COc1ccc(CCCC(CCCc2ccc(OC)c(OC)c2)CN2CC3CCCC(C2=O)N3C(=O)C(=O)c2cc(OC)c(OC)c(OC)c2)cc1OC (stereo not shown) [Example 24, 9-(3,4,5-Trimethoxyphenyl)oxalyl-3,9-diaza-3-[5-(3,4-dimethoxyphenyl)-2-(3-(3,4-dimethoxy-phenyl)propyl)pentyl]bicyclo-[3.3.1]nonan-2-one]	–	–	Ki (Table 2): 21 nM
COc1ccc(CCC(Cc2ccc(OC)c(OC)c2)CN2CC3CCCC(C2=O)N3C(=O)C(=O)c2cc(OC)c(OC)c(OC)c2)cc1OC (stereo not shown) [Example 25, 9-(3,4,5-Trimethoxyphenyl)oxalyl-3,9-diaza-3-[4-(3,4-dimethoxyphenyl)-2-((3,4-dimethoxy-phenyl)methyl)butyl]bicyclo-[3.3.1]nonan-2-one]	–	–	Ki (Table 2): 18 nM
COc1ccc(CCC(CCc2ccccc2)CN2CC3CCCC(C2=O)N3C(=O)C(=O)c2cc(OC)c(OC)c(OC)c2)cc1OC (stereo not shown) [Example 26, 9-(3,4,5-Trimethoxyphenyl)oxalyl-3,9-diaza-3-[4-(3,4-dimethoxyphenyl)-2-(2-phenylethyl)butyl]-bicyclo[3.3.1]nonan-2-one]	–	–	Ki (Table 2): 51 nM
COc1cc(C(F)(F)C(=O)N2C3CCC2C(=O)N(CCCc2ccccc2)C3)cc(OC)c1OC [Example 27, (1S,5R)-8-(3,4,5-Trimethoxyphenyl)difluoroacetyl-3,8-diaza-3-(3-phenylpropyl)bicyclo[3.2.1]octan-2-one]	22%	–	–
COc1ccc(CCCN2CC3CCC(C2=O)N3C(=O)C(F)(F)c2cc(OC)c(OC)c(OC)c2)cc1OC [Example 28, (1S,5R)-8-(3,4,5-Trimethoxyphenyl)difluoroacetyl-3,8-diaza-3-[3-(3,4-dimethoxyphenyl)propyl]bicyclo[3.2.1]octan-2-one]	13%	–	–
COc1ccc(CCCCN2CC3CCC(C2=O)N3C(=O)C(F)(F)c2cc(OC)c(OC)c(OC)c2)cc1OC [Example 29, (1S,5R)-8-(3,4,5-Trimethoxyphenyl)difluoroacetyl-3,8-diaza-3-[4-(3,4-dimethoxyphenyl)butyl]bicyclo[3.2.1]octan-2-one]	8%	–	–
COc1cc(C(F)(F)C(=O)N2C3CCC2C(=O)N(C(CCc2ccccc2)CCc2ccccc2)C3)cc(OC)c1OC [Example 30, (1S,5R)-8-(3,4,5-Trimethoxyphenyl)difluoroacetyl-3,8-diaza-3-[3-phenyl-1-(2-phenylethyl)propyl]bicyclo[3.2.1]octan-2-one]	–	–	inhibition at 1 µM [2]: 4%
COc1cc(CCCN2C[C@H]3CC[C@@H](C2=O)N3C(=O)C(F)(F)c2cc(OC)c(OC)c(OC)c2)cc(OC)c1OC [Example 31, (1S,5R)-8-(3,4,5-Trimethoxyphenyl)difluoroacetyl-3,8-diaza-3-[3-(3,4,5-trimethoxyphenyl)propyl]bicyclo[3.2.1]octan-2-one]	–	598 nM	inhibition at 1 µM: 19%
COc1cc(C(F)(F)C(=O)N2C3CCC2C(=O)N(CCCCc2ccccc2)C3)cc(OC)c1OC [Example 32, (1S,5R)-8-(3,4,5-Trimethoxyphenyl)difluoroacetyl-3,8-diaza-3-(4-phenylbutyl)bicyclo-[3.2.1]octan-2-one]	4%	–	–
COc1cc(C(F)(F)C(=O)N2C3CCC2C(=O)N(CC(CCCc2ccccc2)CCCc2ccccc2)C3)cc(OC)c1OC [Example 33, (1S,5R)-8-(3,4,5-Trimethoxyphenyl)difluoroacetyl-3,8-diaza-3-[5-phenyl-2-(3-phenyl-propyl)pentyl]bicyclo[3.2.1]-octan-2-one]	–	–	inhibition at 1 µM [2]: 7%
COc1cc(CCCC(CCCc2ccccc2)CN2CC3CCC(C2=O)N3C(=O)C(F)(F)c2cc(OC)c(OC)c(OC)c2)cc(OC)c1OC [Example 34, (1S,5R)-8-(3,4,5-Trimethoxyphenyl)difluoroacetyl-3,8-diaza-3-[2-(3-phenylpropyl)-5-(3,4,5-trimethoxyphenyl)pentyl]bicyclo[3.2.1]octan-2-one]	–	–	inhibition at 1 µM [2]: 11%
COc1ccc(CCCN2CC3CCCC(C2=O)N3C(=O)C(F)(F)c2cc(OC)c(OC)c(OC)c2)cc1OC (stereo not shown) [Example 35, 9-(3,4,5-Trimethoxyphenyl)difluoroacetyl-3,9-diaza-3-[3-(3,4-dimethoxyphenyl)propyl]bicyclo[3.3.1]nonan-2-one]	–	360 nM	inhibition at 1 µM: 47%
